{"source": "patent US6602896B1", "about": "“p38MAPK inhibitor and uses thereof” (The Board of Trustees of the University of Arkansas, priority 1999, dated 2003)", "key": {"p42/44^MAPK [1]": {"test_system": "p42/44^MAPK", "assay": "Western blotting of phospho-p42/44MAPK in HeLa cells", "format": "cell-based", "conditions": "SB202190 (2.5 μg/ml) in 0.5% FBS", "method": "(§1) Proteins were fractionated by SDS-PAGE with an 10% acrylamide separation gel, and the separated proteins were transferred to nitrocellulose, and processed as described previously (43, 44). Briefly, membranes were incubated in 20 mM Tris-HCl, pH 7.6, 137 mM NaCl, 0.2% v/v Tween-20 (Tris/NaCl/Tween-20) with 5% w/v non-fat dried milk for 1 h, washed in Tris/NaCl/Tween-20 (3×5 min), and incubated for 1 h with primary antibody in Tris/NaCl/Tween-20 containing 1% milk at room temperature for non phospho-specific antibodies and overnight at 4° C. for phospho-specific antibodies. The following dilutions were used for individual antibodies against different proteins: p42/44^MAPK (1:1600); phosphop-42/44^MAPK (1:1000); phosphop-46/54^JNK (1:1000); phospho-p38^MAPK (1:1600); phospho-MEK-1/2 (1:1000); MKP-1 (1:1500). After further washing in Tris/NaCl/Tween-20, membranes were incubated for 1 h with horseradish peroxidase-linked anti-IgG secondary antibody (Bio-Rad, diluted 1:5000), and immunoreactive proteins were detected by ECL as described by the supplier. Quantitative analyses of protein levels were performed by densitometric scanning of the autoradiograms, and are representative of 3 or more independent experiments."}, "[2]": {"test_system": "p38^MAPK γ- and δ-isoforms", "conditions": "cited from earlier work"}, "LDL receptor expression": {"test_system": "LDL receptor expression", "assay": "Northern blotting of LDL receptor mRNA in HeLa cells", "format": "cell-based", "conditions": "SB202190 (2.5 μM) 4 h", "method": "PD98059 was added 30 min prior to addition of SB202190. After the indicated times, total RNA was isolated and subjected to Northern blotting. […] Total RNA was isolated using TRIzol, and Northern blotting was done essentially as described earlier (43, 44). Briefly, 20 μg total cellular RNA was fractionated on 1% formaldehyde agarose gel and transferred to Zeta Probe membrane by capillary blotting. RNA blots were hybridized with LDL receptor and squalene synthase specific single-stranded M13 probes labeled with [α-^32P ]dCTP. Hybridized filters were washed and exposed to Kodak X-ray film. The relative intensities of specific bands were determined densitometrically within the linear range of the film on a model 300A laser densitometer (Molecular […], Calif.) with Image Quant software. LDL receptor mRNA was normalized to squalene synthase (SS) (included in this study) or to α-actin (data not shown) mRNA level, and data for each point were plotted as the percentage of LDL receptor mRNA as compared to controls."}, "[3]": {"test_system": "p38^MAPK α- and β-isoforms", "conditions": "cited from earlier work"}, "p46/54^JNK [4]": {"test_system": "p46/54^JNK", "conditions": "even at higher concentrations (100 μM); cited from earlier work"}, "p42/44^MAPK [5]": {"test_system": "p42/44^MAPK", "assay": "Immunoblot of phospho-p42/44MAPK in HepG2 cells", "format": "cell-based, human", "conditions": "SB202190 2.5 μM", "method": "(§2) 2×10^5 cells were grown and treated as described in FIG. 1. After the indicated times, equal amounts of cell lysates were blotted with anti-phospho-p42/44^MAPK antibody, phosphorylation-independent p42/44^MAPK antibody, anti-phospho p46/54^JNK antibody, anti-phospho-MEK-1/2, or phosphorylation-independent MKP-1.\nHepG2 cells were cultured in the absence or presence of 1 μM staurosporine or 5 μM PD98059 for 30 min. SB202190 (2.5 μM) was then added to the cells for 4 h, cell lysate was subjected to immunoblotting to measure the phosphorylation levels of p42/44^MAPK and MEK-1/2.\nHuman hepatoma cell line HepG2 and its derivative HepG2-ΔRaf-1:ER cell line that stably expresses the ΔRaf-1:ER chimera were maintained as monolayer cultures in a humidified 5% CO2 atmosphere at 37° C. in Eagle's minimum essential medium (EMEM) (Bio Whittaker, Md.) supplemented with 10% fetal bovine serum (FBS) (Life Technologies Inc.), 2 mM L-glutamine, 20 units/ml penicillin and 20 μg/ml streptomycin sulphate.\nas §1\n(§3) HepG2 cells were incubated with SB202190, and the activity of p42/44^MAPK and p46/54^JNK was determined by immunoblot analysis with antibodies that recognized the activated phosphorylated forms of these kinases in cell extracts obtained at different times."}, "p46/54^JNK [6]": {"test_system": "p46/54^JNK", "assay": "Immunoblot of phospho-p46/54JNK in HepG2 cells", "format": "cell-based, human", "conditions": "SB202190 2.5 μM", "method": "as §2, with “MKP-1. […]” for “MKP-1.”\nProteins were fractionated by SDS-PAGE with an 10% acrylamide separation gel, and the separated proteins were transferred to nitrocellulose, and processed as described previously (43, 44). […] After further washing in Tris/NaCl/Tween-20, membranes were incubated for 1 h with horseradish peroxidase-linked anti-IgG secondary antibody (Bio-Rad, diluted 1:5000), and immunoreactive proteins were detected by ECL as described by the supplier. Quantitative analyses of protein levels were performed by densitometric scanning of the autoradiograms, and are representative of 3 or more independent experiments.\nas §3"}}, "note": "Entries after “also recorded” stand apart in the source; their conditions may differ."}
{"smiles": "Oc1ccc(-c2nc(-c3ccc(F)cc3)c(-c3ccncc3)[nH]2)cc1", "note": "[SB202190, 4-(4-Fluorophenyl)-2-(4-hydroxyphenyl)-5-(4-pyridyl) 1H-imidazole]", "values": [{"measurement": "p42/44MAPK activity in HeLa cells", "setting": "p42/44^MAPK [1]", "result": "induced p42/44^MAPK activity"}, {"measurement": "inhibition of p38MAPK γ- and δ-isoforms", "setting": "[2]", "result": "insensitive"}, {"measurement": "effect on homologues p38MAPK γ (SAPK3) and SAPK4", "setting": "[2]; even at higher concentrations (100 μM)", "result": "without effect"}, {"measurement": "LDL receptor expression in HeLa cells", "setting": "LDL receptor expression", "result": "caused a increase in LDL receptor expression"}, {"measurement": "inhibition of p38MAPK α- and β-isoforms", "setting": "[3]", "result": "selectively inhibit both p38^MAPK α- and β-isoforms; also recorded: inhibited"}, {"measurement": "effect on p46/54JNK", "setting": "p46/54^JNK [4]", "result": "without effect"}, {"measurement": "activation of p42/44MAPK (phosphorylation)", "setting": "p42/44^MAPK [5]", "result": "delayed and prolonged activation"}, {"measurement": "effect on p42/44MAPK protein levels", "setting": "p42/44^MAPK [5]", "result": "no effect on p42/44^MAPK protein levels"}, {"measurement": "time of maximal p42/44MAPK activation after stimulation", "setting": "p42/44^MAPK [5]", "result": "4 to 8", "unit": "h"}, {"measurement": "time of weak p42/44MAPK activation after treatment", "setting": "p42/44^MAPK [5]", "result": 1, "unit": "h"}, {"measurement": "time until which activated p42/44MAPK remained elevated", "setting": "p42/44^MAPK [5]; 24 hours was maximum time point measured", "result": "≥ 24", "unit": "h"}, {"measurement": "effect on activity or levels of p46/54JNK", "setting": "p46/54^JNK [6]", "result": "little or no effect"}]}
